ChEMBL document CHEMBL1949499, “Nicotinic acids: liver-targeted SCD inhibitors with preclinical anti-diabetic efficacy” (Bioorg Med Chem Lett, 2011)
pIC50: −log10 of the molar value.

What was measured:
[1] = Plasma concentration in C57/BL6 mouse at 30 mg/kg, po after 24 hrs; type: ADME, organism-based; design: dose 30 mg/kg, route oral
Mus musculus [2] = experiment: Inhibition of SCD activity in high sucrose/fat free diet fed po dosed C57/BL6 mouse liver assessed as reduction in conversion of [14C]stearic acid to [14C]oleic acid; type: functional, organism-based
[3] = Drug uptake in C57/BL6 mouse cerebellum at 30 mg/kg, po after 2 hrs; type: ADME, organism-based; design: dose 30 mg/kg, route oral; settings: read-out: Drug uptake
[4] = Drug uptake in C57/BL6 mouse left epididymal fat at 30 mg/kg, po after 2 hrs; type: ADME, organism-based, Epididymal fat pad; design: dose 30 mg/kg, route oral; settings: male, read-out: Drug uptake
Mus musculus [5] = experiment: Inhibition of SCD activity in high sucrose/fat free diet fed C57/BL6 mouse liver assessed as reduction in conversion of [14C]stearic acid to [14C]oleic acid at 100 mg/kg, po; type: functional
[6] = Plasma concentration in C57/BL6 mouse at 30 mg/kg, po after 6 hrs; type: ADME, organism-based; design: dose 30 mg/kg, route oral
[7] = Drug uptake in high sucrose/fat free diet fed C57/BL6 mouse liver at 100 mg/kg, po after 3 hrs; type: ADME, organism-based; design: dose 100 mg/kg, route oral; settings: read-out: Drug uptake
[8] = Drug uptake in C57/BL6 mouse harderian glands at 30 mg/kg, po after 24 hrs; type: ADME, organism-based, Harderian gland; design: dose 30 mg/kg, route oral; settings: read-out: Drug uptake
[9] = Drug uptake in C57/BL6 mouse skin at 30 mg/kg, po after 24 hrs; type: ADME, organism-based, Zone of skin; design: dose 30 mg/kg, route oral; settings: read-out: Drug uptake
Stearoyl-CoA desaturase = molecular target: T1, Stearoyl-CoA desaturase (Homo sapiens, UniProt O00767); experiment: Inhibition of human SCD1 expressed in human HepG2 cells assessed as conversion of [14C]stearic acid to [14C]oleic acid; type: cell-based
T1 sequence (O00767 whole entry): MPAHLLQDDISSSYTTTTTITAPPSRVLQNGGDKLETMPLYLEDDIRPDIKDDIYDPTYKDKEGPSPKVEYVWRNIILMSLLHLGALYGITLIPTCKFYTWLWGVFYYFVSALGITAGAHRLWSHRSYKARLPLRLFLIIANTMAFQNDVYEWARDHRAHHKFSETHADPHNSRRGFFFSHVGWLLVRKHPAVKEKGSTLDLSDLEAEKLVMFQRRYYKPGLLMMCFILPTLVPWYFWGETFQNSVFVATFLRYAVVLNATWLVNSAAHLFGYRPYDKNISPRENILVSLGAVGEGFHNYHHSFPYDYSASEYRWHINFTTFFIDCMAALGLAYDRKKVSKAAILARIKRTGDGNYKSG

[10] = Plasma concentration in high sucrose/fat free diet fed C57/BL6 mouse at 100 mg/kg, po after 3 hrs; type: ADME, organism-based; design: dose 100 mg/kg, route oral
[11] = Drug uptake in C57/BL6 mouse skin at 30 mg/kg, po after 2 hrs; type: ADME, organism-based, Zone of skin; design: dose 30 mg/kg, route oral; settings: read-out: Drug uptake
Nucleic Acid [12] = experiment: Ratio of drug uptake in high fat diet fed C57/BL6 mouse eDIO model whole blood to high sucrose/fat free diet fed C57/BL6 mouse plasma; type: ADME; settings: in vivo
[13] = Drug uptake in C57/BL6 mouse left median liver lobe at 30 mg/kg, po after 24 hrs; type: ADME, organism-based; design: dose 30 mg/kg, route oral; settings: read-out: Drug uptake
[14] = Half life in Sprague-Dawley rat at 10 mg/kg, po and 2 mg/kg, iv; type: ADME, organism-based; settings: in vivo
Nucleic Acid [15] = experiment: Ratio of drug uptake in left median liver lobe to harderian gland in C57/BL6 mouse at 30 mg/kg, po after 6 hrs; type: ADME, organism-based; design: dose 30 mg/kg, route oral; settings: in vivo
Mus musculus [16] = experiment: Acute antidiabetic activity in high fat diet fed C57/BL6 mouse eDIO model assessed as increase in glucose clearance at 100 mg/kg, po administered 1 hr prior to glucose challenge by oGTT assay; type: functional
[17] = Plasma clearance in C57/BL6 mouse at 10 mg/kg, po and 2 mg/kg, iv; type: ADME, organism-based
Mus musculus [18] = experiment: Acute antidiabetic activity in high fat diet fed po dosed C57/BL6 mouse eDIO model assessed as increase in glucose clearance administered 1 hr prior to glucose challenge by oGTT assay; type: functional, organism-based
[19] = Plasma concentration in C57/BL6 mouse at 30 mg/kg, po after 2 hrs; type: ADME, organism-based; design: dose 30 mg/kg, route oral
HepG2 = experiment: Selectivity ratio of IC50 for human SCD1 expressed in human HepG2 cells to IC50 for rat SCD1 in Sprague-Dawley rat hepatocytes; type: cell-based
[20] = Oral bioavailability in C57/BL6 mouse plasma at 10 mg/kg; type: ADME, organism-based
[21] = Drug uptake in C57/BL6 mouse harderian glands at 30 mg/kg, po after 2 hrs; type: ADME, organism-based, Harderian gland; design: dose 30 mg/kg, route oral; settings: read-out: Drug uptake
[22] = Drug uptake in C57/BL6 mouse heart at 30 mg/kg, po after 6 hrs; type: ADME, organism-based; design: dose 30 mg/kg, route oral; settings: read-out: Drug uptake
[23] = molecular target: T2, ATP-binding cassette sub-family C member 2 (Homo sapiens, UniProt Q92887); experiment: Binding affinity to MRP2 expressed in MDCK2 cells coexpressing OATP1B1; type: cell-based; settings: dog, mdck-ii
[24] = molecular target: T2, ATP-binding cassette sub-family C member 2; experiment: Binding affinity to MRP2 expressed in MDCK2 cells coexpressing OATP1B3; type: cell-based; settings: dog, mdck-ii
[25] = Drug uptake C57/BL6 in mouse left median liver lobe at 30 mg/kg, po after 6 hrs; type: ADME, organism-based; design: dose 30 mg/kg, route oral; settings: read-out: Drug uptake
Acyl-CoA desaturase 1 = molecular target: T3, Acyl-CoA desaturase 1 (Mus musculus, UniProt P13516); experiment: Inhibition of mouse SCD1
T3 sequence (P13516 whole entry): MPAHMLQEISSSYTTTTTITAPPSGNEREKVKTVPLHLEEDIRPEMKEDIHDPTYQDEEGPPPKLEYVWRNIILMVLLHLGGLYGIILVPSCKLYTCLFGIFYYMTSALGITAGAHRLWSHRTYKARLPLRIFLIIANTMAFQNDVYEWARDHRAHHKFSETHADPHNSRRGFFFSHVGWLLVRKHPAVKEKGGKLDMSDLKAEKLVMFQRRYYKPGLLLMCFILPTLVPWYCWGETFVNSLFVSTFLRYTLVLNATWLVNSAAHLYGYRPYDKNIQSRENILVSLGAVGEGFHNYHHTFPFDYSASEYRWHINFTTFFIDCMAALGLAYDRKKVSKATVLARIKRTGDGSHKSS

[26] = Plasma concentration in high sucrose/fat free diet fed C57/BL6 mouse at 10 mg/kg, po after 3 hrs; type: ADME, organism-based; design: dose 10 mg/kg, route oral
[27] = molecular target: T4, Stearoyl-CoA desaturase 5 (Homo sapiens, UniProt Q86SK9); experiment: Inhibition of human SCD5
T4 sequence (Q86SK9 whole entry): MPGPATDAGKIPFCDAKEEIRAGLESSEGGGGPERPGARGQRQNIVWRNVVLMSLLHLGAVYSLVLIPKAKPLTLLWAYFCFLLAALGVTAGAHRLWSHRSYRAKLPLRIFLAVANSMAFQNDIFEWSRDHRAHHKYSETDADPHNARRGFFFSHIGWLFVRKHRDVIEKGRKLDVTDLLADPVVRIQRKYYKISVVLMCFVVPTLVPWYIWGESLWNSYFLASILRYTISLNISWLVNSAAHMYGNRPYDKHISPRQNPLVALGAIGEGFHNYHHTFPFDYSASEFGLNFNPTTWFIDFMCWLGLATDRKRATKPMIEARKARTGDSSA

Nucleic Acid [28] = experiment: Ratio of drug uptake in left median liver lobe to harderian gland in C57/BL6 mouse at 30 mg/kg, po after 2 hrs; type: ADME, organism-based; design: dose 30 mg/kg, route oral; settings: in vivo
[29] = Ratio of drug uptake in left median liver lobe to harderian gland in C57/BL6 mouse at 10 mg/kg, po after 6 hrs; type: ADME, organism-based; design: dose 10 mg/kg, route oral; settings: in vivo
[30] = AUC in Sprague-Dawley rat plasma at 10 mg/kg, po and 2 mg/kg, iv; type: ADME, organism-based

T2 sequence (Q92887 whole entry): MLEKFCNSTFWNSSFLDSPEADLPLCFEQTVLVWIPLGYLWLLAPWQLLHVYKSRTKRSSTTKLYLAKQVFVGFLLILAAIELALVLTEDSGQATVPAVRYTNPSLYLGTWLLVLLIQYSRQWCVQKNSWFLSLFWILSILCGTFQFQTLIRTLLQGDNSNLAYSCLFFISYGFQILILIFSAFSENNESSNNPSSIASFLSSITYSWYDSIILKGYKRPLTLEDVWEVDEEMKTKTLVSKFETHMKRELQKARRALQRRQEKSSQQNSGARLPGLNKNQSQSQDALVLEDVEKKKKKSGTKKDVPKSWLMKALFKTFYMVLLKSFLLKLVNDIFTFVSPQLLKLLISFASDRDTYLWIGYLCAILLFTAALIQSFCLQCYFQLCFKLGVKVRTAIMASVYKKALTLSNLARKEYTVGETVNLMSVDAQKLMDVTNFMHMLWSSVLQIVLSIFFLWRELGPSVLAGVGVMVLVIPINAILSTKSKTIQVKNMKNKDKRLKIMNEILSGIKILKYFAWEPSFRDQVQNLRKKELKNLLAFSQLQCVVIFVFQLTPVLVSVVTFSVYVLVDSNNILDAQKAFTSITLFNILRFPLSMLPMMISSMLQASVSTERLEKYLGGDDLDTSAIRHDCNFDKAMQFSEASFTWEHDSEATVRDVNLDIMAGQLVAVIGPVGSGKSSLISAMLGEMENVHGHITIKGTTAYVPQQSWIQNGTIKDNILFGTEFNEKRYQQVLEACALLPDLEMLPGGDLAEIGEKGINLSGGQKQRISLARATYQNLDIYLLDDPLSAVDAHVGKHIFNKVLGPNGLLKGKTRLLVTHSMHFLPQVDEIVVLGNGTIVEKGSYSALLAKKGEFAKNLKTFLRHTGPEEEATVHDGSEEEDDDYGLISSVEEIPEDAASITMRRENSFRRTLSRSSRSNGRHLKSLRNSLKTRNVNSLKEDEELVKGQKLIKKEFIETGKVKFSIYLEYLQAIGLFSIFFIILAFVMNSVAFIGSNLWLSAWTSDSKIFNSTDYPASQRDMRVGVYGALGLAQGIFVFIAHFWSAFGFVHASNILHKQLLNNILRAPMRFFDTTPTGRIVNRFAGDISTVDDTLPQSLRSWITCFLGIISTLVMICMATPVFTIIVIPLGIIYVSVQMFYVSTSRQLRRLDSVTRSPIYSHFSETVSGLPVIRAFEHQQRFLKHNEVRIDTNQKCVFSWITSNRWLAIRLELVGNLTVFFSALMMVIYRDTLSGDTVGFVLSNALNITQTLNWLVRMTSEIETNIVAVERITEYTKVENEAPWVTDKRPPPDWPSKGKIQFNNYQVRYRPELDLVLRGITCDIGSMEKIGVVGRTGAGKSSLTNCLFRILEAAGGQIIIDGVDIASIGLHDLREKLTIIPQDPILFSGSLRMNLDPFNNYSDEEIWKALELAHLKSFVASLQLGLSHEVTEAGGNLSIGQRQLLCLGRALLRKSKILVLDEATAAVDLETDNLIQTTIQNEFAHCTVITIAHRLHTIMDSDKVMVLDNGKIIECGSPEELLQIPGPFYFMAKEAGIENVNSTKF

**Q.** Which concentration at 24 h [1] does the source give for O=C(O)c1cncc(-c2ccc(N3CCC(Oc4cc(F)ccc4Br)CC3)nn2)c1 here?
**A.** 5 nM

**Q.** And the inhibition (Mus musculus [2])?
**A.** Dose-dependent effect

**Q.** And the concentration at 2 h [3]?
**A.** 10 nM

**Q.** What about the concentration at 2 h [4] of the same molecule?
**A.** 106 nM

**Q.** What about the inhibition in vivo at 100 mg/kg (Mus musculus [5]) of the same molecule?
**A.** 86%

**Q.** And the concentration at 6 h [6]?
**A.** 626 nM

**Q.** What about the concentration at 3 h [7] of the same molecule?
**A.** 53000 nM

**Q.** What about the concentration at 24 h [8] of the same molecule?
**A.** 5 nM

**Q.** What about the concentration at 24 h [9] of the same molecule?
**A.** 12 nM

**Q.** What about the pIC50 (Stearoyl-CoA desaturase) of the same molecule?
**A.** 5.22

**Q.** What about the concentration at 3 h [10] of the same molecule?
**A.** 4390 nM

**Q.** What about the concentration at 2 h [11] of the same molecule?
**A.** 170 nM

**Q.** And the Ratio (Nucleic Acid [12])?
**A.** < 2

**Q.** And the concentration at 24 h [13]?
**A.** 32 nM

**Q.** What about the half-life [14] of the same molecule?
**A.** 1.4 h

**Q.** And the Ratio (Nucleic Acid [15])?
**A.** > 50

**Q.** What about the Activity (Mus musculus [16]) of the same molecule?
**A.** 90%

**Q.** And the clearance [17]?
**A.** 81 mL/min/kg

**Q.** And the Activity (Mus musculus [18])?
**A.** Dose-dependent effect

**Q.** What about the concentration at 2 h [19] of the same molecule?
**A.** 1210 nM

**Q.** And the Ratio IC50 (HepG2)?
**A.** 34

**Q.** What about the bioavailability [20] of the same molecule?
**A.** 8%

**Q.** What about the concentration at 2 h [21] of the same molecule?
**A.** 389 nM

**Q.** What about the concentration at 6 h [22] of the same molecule?
**A.** 333 nM

**Q.** And the Activity [23]?
**A.** Active

**Q.** What about the Activity [24] of the same molecule?
**A.** Active

**Q.** What about the concentration at 6 h [25] of the same molecule?
**A.** 5200 nM

**Q.** What about the pIC50 (Acyl-CoA desaturase 1) of the same molecule?
**A.** 8.05

**Q.** And the concentration at 3 h [26]?
**A.** 120 nM

**Q.** What about the pIC50 [27] of the same molecule?
**A.** 8.40

**Q.** What about the Ratio (Nucleic Acid [28]) of the same molecule?
**A.** 11

**Q.** And the Ratio [29]?
**A.** 15

**Q.** And the AUC [30]?
**A.** 17.8 µM·h
